Read-outs that look alike come from different tables or passages of the source.
Test system: 134 cancer cell lines
Assay: Cell viability assay (ATPlite, 72 hours), IC50 on cancer cell line panel

Question: Which results are given for CNC(=O)c1ccc(-c2cnc3ncc(Cc4ccc5ncccc5c4)n3n2)cc1F [capmatinib]?
Answer: IC50 (Homo sapiens, LS-411N, read-out: IC50 in cell proliferation assay): > 31.6 µM; IC50 (Homo sapiens, LoVo, read-out: IC50 in cell proliferation assay): 0.00186 µM; IC50 (Homo sapiens, MCF7, read-out: IC50 in cell proliferation assay): > 31.6 µM; IC50 (Homo sapiens, MDA-MB-231, read-out: IC50 in cell proliferation assay): > 31.6 µM; IC50 (Homo sapiens, MDA-MB-453, read-out: IC50 in cell proliferation assay): > 31.6 µM; IC50 (Homo sapiens, MDA-MB-468, read-out: IC50 in cell proliferation assay): 30.8 µM; IC50 (Homo sapiens, MG-63, read-out: IC50 in cell proliferation assay): > 31.6 µM; IC50 (Homo sapiens, MIA PaCa-2, read-out: IC50 in cell proliferation assay): > 31.6 µM; IC50 (Homo sapiens, MKN-45, read-out: IC50 in cell proliferation assay): 0.004 µM; IC50 (Homo sapiens, MOLM-13, read-out: IC50 in cell proliferation assay): 6.01 µM; IC50 (Homo sapiens, MOLT-4, read-out: IC50 in cell proliferation assay): > 31.6 µM; IC50 (Homo sapiens, MV4-11, read-out: IC50 in cell proliferation assay): 1.95 µM; IC50 (Homo sapiens, MeWo, read-out: IC50 in cell proliferation assay): > 31.6 µM; IC50 (Homo sapiens, NCCIT, read-out: IC50 in cell proliferation assay): > 31.6 µM; IC50 (Homo sapiens, NCI-H82, read-out: IC50 in cell proliferation assay): > 31.6 µM; IC50 (Homo sapiens, NCI-H460, read-out: IC50 in cell proliferation assay): > 31.6 µM; IC50 (Homo sapiens, NCI-H661, read-out: IC50 in cell proliferation assay): > 31.6 µM; IC50 (Homo sapiens, NCI-H716, read-out: IC50 in cell proliferation assay): > 31.6 µM; IC50 (Homo sapiens, NCI-H1650, read-out: IC50 in cell proliferation assay): 9.45 µM; IC50 (Homo sapiens, NCI-H1975, read-out: IC50 in cell proliferation assay): > 31.6 µM; IC50 (Homo sapiens, NCI-H2228, read-out: IC50 in cell proliferation assay): > 31.6 µM; IC50 (Homo sapiens, OVCAR-3, read-out: IC50 in cell proliferation assay): > 31.6 µM; IC50 (Homo sapiens, PFSK-1, read-out: IC50 in cell proliferation assay): > 31.6 µM; IC50 (Homo sapiens, RL95-2, read-out: IC50 in cell proliferation assay): > 31.6 µM; IC50 (Homo sapiens, RPMI-7951, read-out: IC50 in cell proliferation assay): > 31.6 µM; IC50 (Homo sapiens, RS4-11, read-out: IC50 in cell proliferation assay): > 31.6 µM; IC50 (Homo sapiens, Rec1, read-out: IC50 in cell proliferation assay): 3.02 µM; IC50 (Homo sapiens, SHP77, read-out: IC50 in cell proliferation assay): > 31.6 µM; IC50 (Homo sapiens, SK-BR-3, read-out: IC50 in cell proliferation assay): > 31.6 µM; IC50 (Homo sapiens, SK-N-AS, read-out: IC50 in cell proliferation assay): > 31.6 µM; IC50 (Homo sapiens, SK-N-FI, read-out: IC50 in cell proliferation assay): > 31.6 µM; IC50 (Homo sapiens, SK-N-MC, read-out: IC50 in cell proliferation assay): > 31.6 µM; IC50 (Homo sapiens, SK-N-SH, read-out: IC50 in cell proliferation assay): 9.7 µM; IC50 (Homo sapiens, SNU-5, read-out: IC50 in cell proliferation assay): 0.000951 µM; IC50 (Homo sapiens, SNU-16, read-out: IC50 in cell proliferation assay): > 31.6 µM; IC50 (Homo sapiens, SNU-C2B, read-out: IC50 in cell proliferation assay): > 31.6 µM; IC50 (Homo sapiens, SU-DHL-1, read-out: IC50 in cell proliferation assay): > 31.6 µM; IC50 (Homo sapiens, SU-DHL-6, read-out: IC50 in cell proliferation assay): > 31.6 µM; IC50 (Homo sapiens, SUP-T1, read-out: IC50 in cell proliferation assay): > 31.6 µM; IC50 (Homo sapiens, SW48, read-out: IC50 in cell proliferation assay): > 31.6 µM; IC50 (Homo sapiens, SW480, read-out: IC50 in cell proliferation assay): > 31.6 µM; IC50 (Homo sapiens, SW626, read-out: IC50 in cell proliferation assay): > 31.6 µM; IC50 (Homo sapiens, SW780, read-out: IC50 in cell proliferation assay): > 31.6 µM; IC50 (Homo sapiens, SW837, read-out: IC50 in cell proliferation assay): 7.23 µM; IC50 (Homo sapiens, SW872, read-out: IC50 in cell proliferation assay): > 31.6 µM; IC50 (Homo sapiens, SW900, read-out: IC50 in cell proliferation assay): > 31.6 µM; IC50 (Homo sapiens, SW948, read-out: IC50 in cell proliferation assay): > 31.6 µM; IC50 (Homo sapiens, SW982, read-out: IC50 in cell proliferation assay): > 31.6 µM; IC50 (Homo sapiens, SW-620, read-out: IC50 in cell proliferation assay): > 31.6 µM; IC50 (Homo sapiens, T98G, read-out: IC50 in cell proliferation assay): > 31.6 µM; IC50 (Homo sapiens, TCC-SUP, read-out: IC50 in cell proliferation assay): > 31.6 µM; IC50 (Homo sapiens, THP-1, read-out: IC50 in cell proliferation assay): > 31.6 µM; IC50 (Homo sapiens, U2OS, read-out: IC50 in cell proliferation assay): > 31.6 µM; IC50 (Homo sapiens, U-87 MG, read-out: IC50 in cell proliferation assay): 0.023 µM; IC50 (Homo sapiens, U-118-MG, read-out: IC50 in cell proliferation assay): > 31.6 µM; IC50 (Homo sapiens, UMUC3, read-out: IC50 in cell proliferation assay): > 31.6 µM; IC50 (Hs766T, read-out: IC50 in cell proliferation assay): > 31.6 µM; IC50 (L-82, read-out: IC50 in cell proliferation assay): > 31.6 µM; IC50 (Rh30, read-out: IC50 in cell proliferation assay): 7.37 µM

— PMC9516332 (Frontiers in Oncology, 2022)
